Data on 42 compounds can be found in patent US8653115B2, “Heterocyclic non-nucleoside compounds, their preparation, pharmaceutical composition and their use as antiviral agents” (Shanghai Institute of Materia Medica, Chinese Academy of …, priority 2006, dated 2014).

Bounds are passed on as bounds.

Data set [1] can be described thus: Cytotoxicity to HepG2.2.15 cells, MTT method. It is filed as cell-based. Conditions: human, HepG2.2.15 cells (HBV-transgenic human hepatoma cell line), day 8, 50% death concentration. Here is the method:
(§1) Hepatitis B virus (HBV) transgenic human hepatoma carcinoma cell, HepG2.2.15 cell line, can secrete hepatitis B virus particles (containing antigen and DNA) into the supernatant when being incubated.
(§2) Under the influence of antiviral drugs, the contents of HBsAg, HBeAg and viral DNA secreted from cells into the supernatant were detected. Compared with the contents of control groups without drugs, the antiviral activity of the sample drugs can be observed. Meanwhile, the cytotoxic effect of the sample drugs can be detected. The value concentration of the sample drugs which caused 50% of the cells dead measured with MTT method was CC50. And the value concentration of the sample drugs which inhibited 50% of the secretion of HBsAg and HBeAg detected by specific ELISA kits and inhibited 50% of the viral DNA replication detected by fluorescent quantitation PCR method was IC50.
(§3) HepG2.2.15 cells were inoculated into a 96-well plate, and the sample drugs were added next day. The medium and the sample drugs with the same concentration were renewed periodically, and the supernatants were collected on the eighth day to be detected. MTT was added to the cells in the 96-well plate, and MTT dissolving solution was added after 4 hours and reacted overnight. OD570 was measured on ELISA the next day. The cytotoxicity of the sample drugs to HepG2.2.15 cells, the effect of the sample drugs on the growth of the cells, and the concentration of the sample drugs (CC50) resulting in 50% of the cells dead were estimated according to the OD values.
Background: Tetrazolium assays rely on reduction of a dye to a coloured formazan, in cell work by metabolically active cells.

For data set [2], the system named is Hepatitis B virus (HBV) DNA. Kind of data set: HBV-DNA replication in HepG2.2.15 supernatant, fluorescent quantification PCR. In kind it is cell-based. Conditions: for IC50: Hepatitis B virus, 192 h, HepG2.2.15 supernatant, day 8, PCR, NA means no obvious biological activity or unable to be calculated. How it is done: as §1, §2, §3
A suitable amount of supernatant was added to the same volume of virus extract solution, and was boiled after mixed homogenously, then centrifuged at 10000 rpm under room temperature for 5 minutes, and a suitable amount of supernatant was collected for PCR amplification. Meanwhile five HBV-DNA standard samples were set to establish a standard curve. According to the obtained viral DNA replication value, the inhibition ratios of HBV-DNA replication of each sample drug at different concentrations were calculated, and then the half inhibition rates of the sample drugs were calculated to obtain IC50. For those samples that can not be calculated for IC50 values, they can be represented by ICx and list the corresponding concentration values.

Turning to `CCOC(=O)c1nc(-c2ccccn2)oc1CC(C)C` [C274], the CC50 at 8 day in data set [1] is > 100 µM. In addition, the IC50 in data set [2] is 67600 nM. Take `CCOC(=O)c1nc(-c2cccc([N+](=O)[O-])c2)sc1CC(C)C` [C334-3]: the CC50 at 8 day in data set [1] was > 33.3 µM. Besides, the IC50 in data set [2] is 1200 nM. As for `CCOC(=O)c1nc(-c2cccc(C)c2)sc1CC(C)C` [C303-2], the CC50 at 8 day in data set [1] was > 33.3 µM. Besides, the IC50 in data set [2] is > 33300 nM. In the same order, the values of `CCOC(=O)c1nc(-c2ncccc2O)sc1CC(C)C` [C306-3] are 5.67 µM and 140 nM. For `CCOC(=O)c1nc(-c2cccnc2)sc1CC(C)C` [C290-2], the CC50 at 8 day in data set [1] is > 100 µM.

With `CCOC(=O)C=Cc1nc(-c2nccs2)sc1CC(C)C` [C322-2], the CC50 at 8 day in data set [1] is > 33.3 µM. Moreover, the IC50 in data set [2] is 60 nM.

Regarding `CCOC(=O)c1nc(-c2cccc(OC)c2)sc1CC(C)C` [C319-4], the CC50 at 8 day in data set [1] is > 33.3 µM. The IC50 in data set [2] was 110 nM. In the case of `CCOC(=O)c1nc(-c2ncc(-c3ccccc3)s2)sc1CC(C)C` [C358], in data set [1], the CC50 at 8 day was > 33.3 µM. Besides, the “DNA replication ICX: IC36” value in data set [2] (concentration at 36% inhibition, IC50 not calculable) is “IC36 = 1.23 μM”. With `CCC(=O)c1nc(-c2nccs2)sc1CC(C)C` [C280-4], in data set [1], the CC50 at 8 day is > 33.3 µM. The IC50 in data set [2] is 90 nM. `CCOC(=O)c1nc(-c2ccc([N+](=O)[O-])c(OC)c2)sc1CC(C)C` [C364-2]: the CC50 at 8 day in data set [1] is > 33.3 µM. For `CCOC(=O)c1nc(-c2ccccc2OC)sc1CC(C)C` [C319-5], the CC50 at 8 day in data set [1] was > 33.3 µM. For the same compound, the IC50 in data set [2] is 40 nM.

On to `CCC(O)c1nc(-c2nccs2)sc1CC(C)C` (stereo not shown) [C282-2], for which the CC50 at 8 day in data set [1] was > 33.3 µM. Further, in data set [2], the IC50 was 800 nM. In turn, `CCCCc1sc(-c2nccs2)nc1C(=O)O` [Wang268] yielded a CC50 at 8 day in data set [1] of 257 µM. For the same compound, the “DNA replication ICX: IC53” value in data set [2] (concentration at 53% inhibition, IC50 not calculable) is reported as “IC53 = 125 μM”.

`CCOC(=O)c1nc(-c2ccccn2)sc1CC(C)C` [C290]: the CC50 at 8 day in data set [1] was > 100 µM. The IC50 in data set [2] is 140 nM. For the compound `CCOC(=O)c1nc(-c2ccccc2[N+](=O)[O-])sc1CC(C)C` [C334-4], the CC50 at 8 day in data set [1] is > 33.3 µM. Also, the IC50 in data set [2] was 1240 nM. Compound `CCOC(=O)c1nc(-c2ccc3ccccc3n2)oc1CC(C)C` [C324-4] displayed a CC50 at 8 day in data set [1] of 45.4 µM. Besides, the IC50 in data set [2] was 11900 nM. On to `CC(C)Cc1sc(-c2nccs2)nc1C(C)O` (stereo not shown) [C268-2], for which the CC50 at 8 day in data set [1] was > 33.3 µM. In addition, the IC50 in data set [2] is 600 nM. As to `CCOC(=O)c1nc(-c2ccccc2F)sc1CC(C)C` [C307-4], the CC50 at 8 day in data set [1] is > 33.3 µM. Also, the IC50 in data set [2] was 140 nM. As for `CCOC(=O)c1nc(-c2cccc(F)c2)sc1CC(C)C` [C307-3], the CC50 at 8 day in data set [1] was > 33.3 µM. Besides, the IC50 in data set [2] is < 50 nM. Regarding `CCOC(=O)c1nc(-c2ncc(Br)s2)sc1CC(C)C` [C375], the CC50 at 8 day in data set [1] is > 33.3 µM. Moreover, the IC50 in data set [2] was > 33300 nM.

In the case of `CCOC(=O)c1nc(-c2ccc(F)cc2)sc1CC(C)C` [C307-2], in data set [1], the CC50 at 8 day was > 33.3 µM.

`CC(C)Cc1sc(-c2nccs2)nc1C(=O)Nc1ccccc1` [C343] displayed a CC50 at 8 day in data set [1] of 50 µM. Also, the “DNA replication ICX: IC19” value in data set [2] (concentration at 19% inhibition, IC50 not calculable) is “IC19 = 1.23 μM”. With `CCOC(=O)c1nc(-c2cccc(O)n2)sc1CC(C)C` [C306-2], the CC50 at 8 day in data set [1] was > 100 µM. Moreover, in data set [2], the IC50 was 140 nM.

For `CCOC(=O)c1nc(-c2cccc(Cl)c2)sc1CC(C)C` [C323-3], in data set [1], the CC50 at 8 day is > 33.3 µM. In turn, `O=C(O)c1nc(-c2nccs2)sc1Cc1ccccc1` [Wang302] came in with a CC50 at 8 day in data set [1] of 192 µM. Besides, the IC50 in data set [2] is 63100 nM.

Turning to `CC(C)Cc1sc(-c2nccs2)nc1C(N)=O` [C267], the CC50 at 8 day in data set [1] was > 100 µM. Besides, the “DNA replication ICX: IC89” value in data set [2] (concentration at 89% inhibition, IC50 not calculable) is reported as “IC89 = 33 μM”. Turning to `CNC(=O)c1nc(-c2nccs2)sc1CC(C)C` [C281], the CC50 at 8 day in data set [1] was > 100 µM. Also, in data set [2] (concentration at 94% inhibition, IC50 not calculable), the “DNA replication ICX: IC94” value is on record as “IC94 = 33 μM”. `CCOC(=O)c1nc(-c2ccccc2C)sc1CC(C)C` [C303-3]: the CC50 at 8 day in data set [1] was > 33.3 µM. Also, in data set [2], the IC50 is 1480 nM. `CCOC(=O)CCc1nc(-c2nccs2)sc1CC(C)C` [C324-5]: the CC50 at 8 day in data set [1] was > 33.3 µM. In addition, the IC50 in data set [2] was 3000 nM. For the compound `CCOC(=O)c1nc(-c2cccc([N+](=O)[O-])c2OC)sc1CC(C)C` [C364-1], in data set [1], the midpoint of cytotoxicity, the CC50 at 8 day, lay at 19.2 µM. In data set [2], the IC50 was 1100 nM. As to `CC(=O)c1nc(-c2nccs2)sc1CC(C)C` [C266], in data set [1], the CC50 at 8 day was > 33.3 µM. For the same compound, in data set [2], the IC50 is 60 nM.

On to `COC(=O)c1nc(-c2nccs2)sc1CC(C)C` [W28], for which the CC50 at 8 day in data set [1] was > 333 µM. The IC50 in data set [2] is 2400 nM.

Consider `CCOC(=O)c1nc(-c2ccc(OC)cc2)sc1CC(C)C` [C319-3], for which the CC50 at 8 day in data set [1] is > 33.3 µM. Further, the IC50 in data set [2] was 90 nM. On to `CCOC(=O)c1nc(-c2ccc(O)cc2)sc1CC(C)C` [C305-4], for which the CC50 at 8 day in data set [1] is > 33.3 µM. Regarding `CCOC(=O)c1nc(-c2ccc(C)cc2)sc1CC(C)C` [C303-1], the CC50 at 8 day in data set [1] was > 33.3 µM. In data set [2], the IC50 was 2900 nM. Regarding `CC(C)Cc1sc(-c2nccs2)nc1CO` [C254], the CC50 at 8 day in data set [1] was > 33.3 µM. The IC50 in data set [2] was > 33300 nM. As to `CC(C)Cc1sc(-c2nccs2)nc1C(=O)OC(C)(C)C` [C324-6], in data set [1], the CC50 at 8 day was > 33.3 µM. Moreover, in data set [2], the concentration for half-maximal inhibition (IC50) is 3700 nM. In the case of `CCOC(=O)c1nc(-c2ccncc2)sc1CC(C)C` [C290-3], in data set [1], the CC50 at 8 day was > 100 µM.

For the compound `CCOC(=O)c1nc(-c2ccc3ccccc3n2)[nH]c1CC(C)C` [C323-2], the CC50 at 8 day in data set [1] is > 100 µM. In the case of `CCOC(=O)c1nc(-c2ccc(NC(=O)OC(C)(C)C)cc2)sc1CC(C)C` [C404], the CC50 at 8 day in data set [1] is > 33.3 µM. Regarding `CCOC(=O)c1nc(-c2ccc([N+](=O)[O-])cc2)sc1CC(C)C` [C334-2], the CC50 at 8 day in data set [1] was > 33.3 µM. The IC50 in data set [2] is 1060 nM. In the case of `CC(C)Cc1sc(-c2nccs2)nc1C(=O)N(C)C` [C295-3], in data set [1], the CC50 at 8 day was > 100 µM. In data set [2] (concentration at 12% inhibition, IC50 not calculable), the “DNA replication ICX: IC12” value is on record as “IC12 = 1.23 μM”.

In general, CC50 refers to the concentration giving 50% cytotoxicity. Read a low CC50 as harm at low concentration. As a reminder, the IC50 is the concentration that inhibits the measured activity by half.
